Results as given in patent US20250243196A1, “CITRON KINASE INHIBITORS” (The Cleveland Clinic Foundation, priority 2021, published 2025).

Key:
Assay type in all cases: biochemical
[1] = molecular target: TGFBR1(h) (Homo sapiens (Human), UniProt P36897); test: KinaseProfiler panel; parameters: dose or concentration left out as unconfirmed; conditions: activity remaining
[2] = molecular target: MOK(h) (Homo sapiens (Human), UniProt Q9UQ07); test: KinaseProfiler panel; conditions: activity remaining
[3] = molecular target: CDKL4(h) (Homo sapiens (Human), UniProt Q5MAI5); test: KinaseProfiler panel; parameters: dose or concentration left out as unconfirmed; conditions: activity remaining
Sequence of CDKL4(h) (Q5MAI5 whole entry): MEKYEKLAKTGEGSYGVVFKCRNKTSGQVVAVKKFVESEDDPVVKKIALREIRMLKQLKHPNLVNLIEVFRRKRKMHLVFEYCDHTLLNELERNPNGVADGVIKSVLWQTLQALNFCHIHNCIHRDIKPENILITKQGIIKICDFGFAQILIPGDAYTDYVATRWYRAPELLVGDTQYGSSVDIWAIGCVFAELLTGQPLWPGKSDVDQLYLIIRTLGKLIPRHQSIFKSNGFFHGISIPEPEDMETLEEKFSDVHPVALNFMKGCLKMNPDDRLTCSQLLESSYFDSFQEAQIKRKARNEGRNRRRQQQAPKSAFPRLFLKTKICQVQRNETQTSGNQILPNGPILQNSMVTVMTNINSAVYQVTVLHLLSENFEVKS

[4] = molecular target: ZAP-70(h) (Homo sapiens (Human), UniProt P43403); test: KinaseProfiler panel; parameters: dose or concentration left out as unconfirmed; conditions: activity remaining
[5] = molecular target: GRK7(h) (Homo sapiens (Human), UniProt Q8WTQ7); test: KinaseProfiler panel; parameters: dose or concentration left out as unconfirmed; conditions: activity remaining
[6] = molecular target: PRKG2(h) (Homo sapiens (Human), UniProt Q13237); test: KinaseProfiler panel; parameters: dose or concentration left out as unconfirmed; conditions: activity remaining
[7] = molecular target: SAPK2a(h) (Homo sapiens (Human), UniProt Q16539); test: KinaseProfiler panel; parameters: dose or concentration left out as unconfirmed; conditions: activity remaining
Sequence of SAPK2a(h) (Q16539 whole entry): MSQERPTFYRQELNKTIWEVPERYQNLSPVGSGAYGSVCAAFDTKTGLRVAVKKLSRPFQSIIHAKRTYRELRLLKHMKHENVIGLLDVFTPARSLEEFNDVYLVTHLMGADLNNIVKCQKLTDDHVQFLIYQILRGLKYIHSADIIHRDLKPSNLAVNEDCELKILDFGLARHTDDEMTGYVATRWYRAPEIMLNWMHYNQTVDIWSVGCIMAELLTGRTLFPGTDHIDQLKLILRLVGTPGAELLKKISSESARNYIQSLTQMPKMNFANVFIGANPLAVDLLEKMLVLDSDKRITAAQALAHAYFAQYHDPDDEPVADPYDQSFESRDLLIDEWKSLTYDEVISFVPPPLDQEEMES

[8] = molecular target: MELK(h) (Homo sapiens (Human), UniProt Q14680); test: KinaseProfiler panel; parameters: dose or concentration left out as unconfirmed; conditions: activity remaining
[9] = molecular target: ATM(h) (Homo sapiens (Human), UniProt Q13315); test: KinaseProfiler panel; parameters: dose or concentration left out as unconfirmed; conditions: activity remaining
[10] = molecular target: EphA3(h) (Homo sapiens (Human), UniProt P29320); test: KinaseProfiler panel; parameters: dose or concentration left out as unconfirmed; conditions: activity remaining
[11] = molecular target: SIK2(h) (Homo sapiens (Human), UniProt Q9H0K1); test: KinaseProfiler panel; parameters: dose or concentration left out as unconfirmed; conditions: activity remaining
[12] = molecular target: MAPK2(h) (Homo sapiens (Human), UniProt P28482); test: KinaseProfiler panel; parameters: dose or concentration left out as unconfirmed; conditions: activity remaining
[13] = molecular target: Fes(h) (Homo sapiens (Human), UniProt P07332); test: KinaseProfiler panel; parameters: dose or concentration left out as unconfirmed; conditions: activity remaining
[14] = molecular target: PAK5(h) (Homo sapiens (Human), UniProt Q9P286); test: KinaseProfiler panel; parameters: dose or concentration left out as unconfirmed; conditions: activity remaining
Sequence of PAK5(h) (Q9P286 whole entry): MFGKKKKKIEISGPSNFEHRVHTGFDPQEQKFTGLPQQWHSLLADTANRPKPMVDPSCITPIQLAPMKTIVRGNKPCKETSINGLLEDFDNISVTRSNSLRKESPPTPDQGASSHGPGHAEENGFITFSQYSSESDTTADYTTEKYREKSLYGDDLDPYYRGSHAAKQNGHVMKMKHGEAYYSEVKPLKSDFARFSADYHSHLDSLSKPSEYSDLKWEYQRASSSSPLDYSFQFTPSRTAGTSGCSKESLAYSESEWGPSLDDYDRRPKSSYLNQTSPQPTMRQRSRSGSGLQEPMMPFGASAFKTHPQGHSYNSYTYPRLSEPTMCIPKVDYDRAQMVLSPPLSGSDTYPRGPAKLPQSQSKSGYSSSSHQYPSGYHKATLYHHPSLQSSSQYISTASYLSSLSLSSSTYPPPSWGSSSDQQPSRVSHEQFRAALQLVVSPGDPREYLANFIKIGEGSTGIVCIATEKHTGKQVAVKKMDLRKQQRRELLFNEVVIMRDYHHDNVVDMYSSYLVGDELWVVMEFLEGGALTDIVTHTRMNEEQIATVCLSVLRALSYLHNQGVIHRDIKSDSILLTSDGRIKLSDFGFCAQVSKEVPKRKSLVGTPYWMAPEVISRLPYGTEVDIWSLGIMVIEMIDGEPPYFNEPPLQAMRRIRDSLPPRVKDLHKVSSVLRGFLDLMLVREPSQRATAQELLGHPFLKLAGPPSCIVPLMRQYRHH

[15] = molecular target: Mnk2 (Homo sapiens (Human), UniProt Q9HBH9); test: KinaseProfiler radiometric assay (14-664KP); conditions: mean of at least two independent experiments
Sequence of Mnk2 (Q9HBH9 whole entry): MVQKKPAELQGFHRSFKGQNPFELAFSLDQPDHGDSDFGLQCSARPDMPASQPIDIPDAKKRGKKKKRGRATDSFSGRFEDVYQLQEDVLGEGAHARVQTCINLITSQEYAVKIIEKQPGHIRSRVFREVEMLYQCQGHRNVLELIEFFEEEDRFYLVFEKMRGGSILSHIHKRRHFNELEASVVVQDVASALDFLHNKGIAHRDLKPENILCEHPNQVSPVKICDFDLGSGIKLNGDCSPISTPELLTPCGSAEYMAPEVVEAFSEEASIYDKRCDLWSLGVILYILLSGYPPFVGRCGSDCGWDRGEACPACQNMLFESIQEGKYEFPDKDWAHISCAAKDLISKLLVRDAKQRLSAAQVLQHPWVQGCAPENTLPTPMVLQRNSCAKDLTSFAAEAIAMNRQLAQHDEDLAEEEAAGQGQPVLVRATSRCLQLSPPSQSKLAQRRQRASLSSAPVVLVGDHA
Excerpt: In another aspect, disclosed is a method of inhibiting citron kinase in a sample, comprising contacting the sample with a compound described herein (e.g., a compound of formula (I) or a pharmaceutically acceptable salt thereof), or a pharmaceutical composition described herein (e.g., a pharmaceutical composition comprising a compound of formula (I) or a pharmaceutically acceptable salt thereof), in an amount effective to inhibit citron kinase. In some embodiments, the step of contacting the sample with the compound comprises administering the compound to a subject (e.g., a subject) suffering from cancer. Methods of determining kinase inhibition are well known in the art. For example, kinase activity of an enzyme and the inhibitory capacity of a test compound can be determined by measuring enzyme specific phosphorylation of a substrate. Commercial assays and kits can be employed. For example, kinase inhibition can be determined using a radiometric binding assay, such as using KinaseProfiler™ technology (Eurofins Discovery). This assay method directly detects product formation without the use of modified substrates or coupling enzymes. […]
The effect of various compounds on the inhibition of other kinases has also been determined. Table 2 reports measured IC50 values; value units are nanomolar inhibition.

[16] = molecular target: SBK1(h) (Homo sapiens (Human), UniProt Q52WX2); test: KinaseProfiler panel; parameters: dose or concentration left out as unconfirmed; conditions: activity remaining
Sequence of SBK1(h) (Q52WX2 whole entry): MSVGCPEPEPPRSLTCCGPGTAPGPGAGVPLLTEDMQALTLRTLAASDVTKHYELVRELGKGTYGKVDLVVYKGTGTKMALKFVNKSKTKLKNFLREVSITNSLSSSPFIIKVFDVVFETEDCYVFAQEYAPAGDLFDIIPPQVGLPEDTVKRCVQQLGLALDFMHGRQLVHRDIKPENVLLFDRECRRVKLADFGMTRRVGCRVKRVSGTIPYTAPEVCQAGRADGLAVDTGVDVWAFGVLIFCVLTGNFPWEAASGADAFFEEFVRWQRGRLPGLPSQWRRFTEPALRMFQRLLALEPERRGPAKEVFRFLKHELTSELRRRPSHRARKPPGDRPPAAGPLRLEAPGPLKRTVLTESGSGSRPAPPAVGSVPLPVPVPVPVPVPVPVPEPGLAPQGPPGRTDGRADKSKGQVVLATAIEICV

[17] = molecular target: DAPK2(h) (Homo sapiens (Human), UniProt Q9UIK4); test: KinaseProfiler panel; conditions: activity remaining
[18] = molecular target: Lyn(h) (Homo sapiens (Human), UniProt P07948); test: KinaseProfiler panel; parameters: dose or concentration left out as unconfirmed; conditions: activity remaining
[19] = molecular target: CDK18/cyclinY(h) (Homo sapiens (Human), UniProt Q07002); test: KinaseProfiler panel; parameters: dose or concentration left out as unconfirmed; conditions: activity remaining
Sequence of CDK18/cyclinY(h) (Q07002 whole entry): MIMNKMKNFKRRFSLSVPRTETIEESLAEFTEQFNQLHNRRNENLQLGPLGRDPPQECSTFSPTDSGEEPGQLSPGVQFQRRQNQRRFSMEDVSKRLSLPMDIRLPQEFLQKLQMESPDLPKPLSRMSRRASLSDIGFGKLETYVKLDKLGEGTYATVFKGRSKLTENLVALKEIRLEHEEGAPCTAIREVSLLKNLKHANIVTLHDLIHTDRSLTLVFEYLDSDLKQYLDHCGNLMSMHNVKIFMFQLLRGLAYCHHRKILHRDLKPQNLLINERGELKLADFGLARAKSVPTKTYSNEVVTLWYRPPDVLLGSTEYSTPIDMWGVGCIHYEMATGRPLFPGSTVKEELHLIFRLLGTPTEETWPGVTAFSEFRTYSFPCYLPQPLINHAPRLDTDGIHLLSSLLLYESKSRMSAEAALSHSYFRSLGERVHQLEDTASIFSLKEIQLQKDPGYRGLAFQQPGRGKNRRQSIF
Sequence of CDK18/cyclinY(h) (Q8ND76 whole entry partner): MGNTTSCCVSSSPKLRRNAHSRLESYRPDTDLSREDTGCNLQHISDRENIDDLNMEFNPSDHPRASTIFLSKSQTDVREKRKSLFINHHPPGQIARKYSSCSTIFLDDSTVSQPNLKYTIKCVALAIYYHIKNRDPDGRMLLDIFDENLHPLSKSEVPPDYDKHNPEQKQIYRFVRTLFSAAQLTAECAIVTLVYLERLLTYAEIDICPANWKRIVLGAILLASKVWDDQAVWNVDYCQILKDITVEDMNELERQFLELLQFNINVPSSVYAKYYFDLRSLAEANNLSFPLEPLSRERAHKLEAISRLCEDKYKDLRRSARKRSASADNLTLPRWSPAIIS

[20] = molecular target: CDK5/p35(h) (Homo sapiens (Human), UniProt Q00535); test: KinaseProfiler panel; parameters: dose or concentration left out as unconfirmed; conditions: activity remaining
[21] = molecular target: JNK3(h) (Homo sapiens (Human), UniProt P53779); test: KinaseProfiler panel; parameters: dose or concentration left out as unconfirmed; conditions: activity remaining
[22] = molecular target: IRAK4(h) (Homo sapiens (Human), UniProt Q9NWZ3); test: KinaseProfiler panel; parameters: dose or concentration left out as unconfirmed; conditions: activity remaining
Sequence of IRAK4(h) (Q9NWZ3 whole entry): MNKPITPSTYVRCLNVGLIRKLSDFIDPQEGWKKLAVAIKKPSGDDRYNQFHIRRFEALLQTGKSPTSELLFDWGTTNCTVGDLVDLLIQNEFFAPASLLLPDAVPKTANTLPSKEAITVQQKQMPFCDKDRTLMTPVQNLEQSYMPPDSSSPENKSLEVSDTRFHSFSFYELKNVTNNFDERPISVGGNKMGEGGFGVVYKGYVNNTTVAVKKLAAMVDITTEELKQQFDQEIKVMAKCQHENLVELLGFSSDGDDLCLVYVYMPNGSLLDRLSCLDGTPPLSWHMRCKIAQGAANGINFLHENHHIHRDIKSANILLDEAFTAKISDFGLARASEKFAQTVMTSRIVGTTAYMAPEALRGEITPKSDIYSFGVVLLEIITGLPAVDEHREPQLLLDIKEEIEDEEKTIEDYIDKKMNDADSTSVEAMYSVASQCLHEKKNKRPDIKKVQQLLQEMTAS

[23] = molecular target: IR(h), activated (Homo sapiens (Human), UniProt P06213); test: KinaseProfiler panel; parameters: dose or concentration left out as unconfirmed; conditions: activity remaining
[24] = molecular target: CaMKIβ(h) (Homo sapiens (Human), UniProt Q6P2M8); test: KinaseProfiler panel; parameters: dose or concentration left out as unconfirmed; conditions: activity remaining
[25] = molecular target: SIK3(h) (Homo sapiens (Human), UniProt Q9Y2K2); test: KinaseProfiler panel; parameters: dose or concentration left out as unconfirmed; conditions: activity remaining
[26] = molecular target: PKD3(h) (Homo sapiens (Human), UniProt O94806); test: KinaseProfiler panel; parameters: dose or concentration left out as unconfirmed; conditions: activity remaining
Sequence of PKD3(h) (O94806 whole entry): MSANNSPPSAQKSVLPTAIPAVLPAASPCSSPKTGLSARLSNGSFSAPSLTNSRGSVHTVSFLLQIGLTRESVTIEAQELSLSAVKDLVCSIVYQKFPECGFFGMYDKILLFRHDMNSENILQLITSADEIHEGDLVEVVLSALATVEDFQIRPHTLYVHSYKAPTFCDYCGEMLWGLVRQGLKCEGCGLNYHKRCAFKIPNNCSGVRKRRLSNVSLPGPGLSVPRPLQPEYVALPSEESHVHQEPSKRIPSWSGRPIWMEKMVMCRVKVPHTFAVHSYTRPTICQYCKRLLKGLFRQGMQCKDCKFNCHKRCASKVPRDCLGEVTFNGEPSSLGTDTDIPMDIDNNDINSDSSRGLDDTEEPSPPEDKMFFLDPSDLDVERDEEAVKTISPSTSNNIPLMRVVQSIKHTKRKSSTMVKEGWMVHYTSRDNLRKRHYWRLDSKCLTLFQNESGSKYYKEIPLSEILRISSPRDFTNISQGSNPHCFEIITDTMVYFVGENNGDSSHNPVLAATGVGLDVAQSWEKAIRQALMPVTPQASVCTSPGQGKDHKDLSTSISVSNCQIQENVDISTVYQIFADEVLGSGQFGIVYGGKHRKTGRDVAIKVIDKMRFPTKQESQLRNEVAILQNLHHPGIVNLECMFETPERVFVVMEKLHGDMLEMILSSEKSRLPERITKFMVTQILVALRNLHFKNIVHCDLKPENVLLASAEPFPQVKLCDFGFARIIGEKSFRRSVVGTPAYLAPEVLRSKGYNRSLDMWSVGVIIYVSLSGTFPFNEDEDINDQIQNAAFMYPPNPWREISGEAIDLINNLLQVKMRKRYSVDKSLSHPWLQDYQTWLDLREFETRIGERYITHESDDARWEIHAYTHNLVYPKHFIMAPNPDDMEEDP

Sequence of TGFBR1(h) (P36897 34-503): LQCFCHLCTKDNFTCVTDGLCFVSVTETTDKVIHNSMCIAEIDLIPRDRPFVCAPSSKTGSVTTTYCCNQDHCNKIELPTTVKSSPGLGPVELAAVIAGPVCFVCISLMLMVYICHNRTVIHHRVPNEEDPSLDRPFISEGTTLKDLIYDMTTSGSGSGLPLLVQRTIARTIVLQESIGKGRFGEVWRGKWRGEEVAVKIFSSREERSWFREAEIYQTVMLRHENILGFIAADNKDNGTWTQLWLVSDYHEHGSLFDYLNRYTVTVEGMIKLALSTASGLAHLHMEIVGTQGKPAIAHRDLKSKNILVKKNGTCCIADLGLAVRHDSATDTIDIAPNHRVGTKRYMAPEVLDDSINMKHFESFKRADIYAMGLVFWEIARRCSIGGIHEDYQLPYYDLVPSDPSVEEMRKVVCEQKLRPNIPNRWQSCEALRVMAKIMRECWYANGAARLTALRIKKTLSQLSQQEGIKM

Which “% Activity” value [1] does the source give for Cc1cc2c(-c3ccc(NC(=O)[C@H](N)CC(C)(C)C)cc3C)ccnc2[nH]1 [Compound F-90, (2R)-2-Amino-4,4-dimethyl-N-[3-methyl-4-(2-methyl-1H-pyrrolo[2,3-b]pyridin-4-yl)phenyl]pentanamide] here?
The value was 103%.

What about the “% Activity” value [2] of the same molecule?
The value was 90%.

What about the “% Activity” value [3] of the same molecule?
The value was 104%.

What about the “% Activity” value [4] of the same molecule?
The value was 71%.

And the “% Activity” value [5]?
Its value is 98%.

And the “% Activity” value [6]?
Its value is 110%.

And the “% Activity” value [7]?
The value was 94%.

And the “% Activity” value [8]?
Its value is 82%.

And the “% Activity” value [9]?
The value was 103%.

What about the “% Activity” value [10] of the same molecule?
The value was 79%.

What about the “% Activity” value [11] of the same molecule?
Its value is 109%.

What about the “% Activity” value [12] of the same molecule?
Its value is 109%.

What about the “% Activity” value [13] of the same molecule?
The value was 111%.

What about the “% Activity” value [14] of the same molecule?
Its value is 87%.

What about the IC50 [15] of the same molecule?
The IC50 was 2180 nM.

And the “% Activity” value [16]?
Its value is 97%.

What about the “% Activity” value [17] of the same molecule?
Its value is 109%.

And the “% Activity” value [18]?
The value was 80%.

And the “% Activity” value [19]?
Its value is 94%.

What about the “% Activity” value [20] of the same molecule?
The value was 79%.

And the “% Activity” value [21]?
The value was 88%.

And the “% Activity” value [22]?
Its value is 90%.

And the “% Activity” value [23]?
Its value is 92%.

And the “% Activity” value [24]?
Its value is 85%.

What about the “% Activity” value [25] of the same molecule?
The value was 105%.

What about the “% Activity” value [26] of the same molecule?
Its value is 97%.
